Reference: paper PMC7373191, “Escherichia coli K-12 Lacks a High-Affinity Assimilatory Cysteine Importer” (mBio, 2020)

Tests used:
Format in all cases: cell-based, Escherichia coli
[1] = molecular target: T1, (UniProt P04816+P0AD96); assay: inhibition of […]leucine uptake into whole cells, filtration; details: read-out: 50% inhibition
T1 construct: gene livJ; native chromosomal ABC importer in whole cells; other candidate importers deleted

[2] = molecular target: T1, (UniProt P04816+P0AD96); assay: inhibition of […]cysteine uptake into whole cells, filtration; details: read-out: 50% inhibition
[3] = substrate: N[C@@H](CS)C(=O)O; assay: cells, lysate or membranes; details: strain ZYD214, no other amino acids, 93-s time point, 37 °C, minimal glucose medium pH 7.0, DTPA and chloramphenicol, labelled compound

T1 sequence (P22731 whole entry, one chain of several): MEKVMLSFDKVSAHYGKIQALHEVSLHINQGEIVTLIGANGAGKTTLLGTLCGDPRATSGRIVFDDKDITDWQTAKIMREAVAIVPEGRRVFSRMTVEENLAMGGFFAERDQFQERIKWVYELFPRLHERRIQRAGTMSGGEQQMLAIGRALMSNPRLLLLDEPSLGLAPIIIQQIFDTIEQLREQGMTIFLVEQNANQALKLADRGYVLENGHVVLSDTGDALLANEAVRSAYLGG
T1 sequence (P0AEX7 whole entry, one chain of several, further chain): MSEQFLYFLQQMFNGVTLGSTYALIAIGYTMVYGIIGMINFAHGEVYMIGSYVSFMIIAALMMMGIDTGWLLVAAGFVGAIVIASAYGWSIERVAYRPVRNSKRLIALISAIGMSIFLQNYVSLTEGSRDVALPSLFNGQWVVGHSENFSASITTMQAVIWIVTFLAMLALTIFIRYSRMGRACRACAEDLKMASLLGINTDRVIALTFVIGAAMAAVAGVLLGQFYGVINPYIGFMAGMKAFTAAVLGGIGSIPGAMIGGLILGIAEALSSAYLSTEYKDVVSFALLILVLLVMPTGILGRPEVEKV
T1 sequence (P22729 whole entry, one chain of several, further chain): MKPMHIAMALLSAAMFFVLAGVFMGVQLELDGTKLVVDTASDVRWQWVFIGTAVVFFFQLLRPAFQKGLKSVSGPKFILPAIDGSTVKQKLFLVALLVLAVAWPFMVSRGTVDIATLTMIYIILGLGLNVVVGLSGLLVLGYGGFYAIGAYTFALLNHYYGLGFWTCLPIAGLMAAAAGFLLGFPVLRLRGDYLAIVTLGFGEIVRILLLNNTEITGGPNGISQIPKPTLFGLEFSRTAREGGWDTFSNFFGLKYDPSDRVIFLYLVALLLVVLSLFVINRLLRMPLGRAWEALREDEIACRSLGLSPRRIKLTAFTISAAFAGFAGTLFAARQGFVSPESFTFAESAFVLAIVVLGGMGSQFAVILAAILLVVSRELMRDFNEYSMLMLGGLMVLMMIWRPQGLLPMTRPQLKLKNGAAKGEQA
T1 sequence (P0A9S7 whole entry, one chain of several, further chain): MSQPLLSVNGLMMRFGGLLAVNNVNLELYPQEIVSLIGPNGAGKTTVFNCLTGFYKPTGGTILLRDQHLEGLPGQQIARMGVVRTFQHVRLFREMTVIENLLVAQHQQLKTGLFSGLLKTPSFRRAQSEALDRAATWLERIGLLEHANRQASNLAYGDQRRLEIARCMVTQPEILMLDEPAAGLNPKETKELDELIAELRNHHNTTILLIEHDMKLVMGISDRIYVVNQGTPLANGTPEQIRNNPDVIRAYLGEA

## N[C@@H](CS)C(=O)O [cysteine]
[1]
  IC50: ~400 µM

## CC(C)C[C@H](N)C(=O)O [leucine]
[2]
  IC50: ~2 µM

B1: LIV system (LivJ/LivKHMGF) (Escherichia coli K-12) (protein)
chain 1: EDIKVAVVGAMSGPVAQYGDQEFTGAEQAVADINAKGGIKGNKLQIVKYDDACDPKQAVAVANKVVNDGIKYVIGHLCSSSTQPASDIYEDEGILMITPAATAPELTARGYQLILRTTGLDSDQGPTAAKYILEKVKPQRIAIVHDKQQYGEGLARAVQDGLKKGNANVVFFDGITAGEKDFSTLVARLKKENIDFVYYGGYHPEMGQILRQARAAGLKTQFMGPEGVANVSLSNIAGESAEGLLVTKPKNYDQVPANKPIVDAIKAKKQDPSGAFVWTTYAALQSLQAGLNQSDDPAEIAKYLKANSVDTVMGPLTWDEKGDLKGFEFGVFDWHANGTATDAK
chain 2: DDIKVAVVGAMSGPIAQWGDMEFNGARQAIKDINAKGGIKGDKLVGVEYDDACDPKQAVAVANKIVNDGIKYVIGHLCSSSTQPASDIYEDEGILMISPGATNPELTQRGYQHIMRTAGLDSSQGPTAAKYILETVKPQRIAIIHDKQQYGEGLARSVQDGLKAANANVVFFDGITAGEKDFSALIARLKKENIDFVYYGGYYPEMGQMLRQARSVGLKTQFMGPEGVGNASLSNIAGDAAEGMLVTMPKRYDQDPANQGIVDALKADKKDPSGPYVWITYAAVQSLATALERTGSDEPLALVKDLKANGANTVIGPLNWDEKGDLKGFDFGVFQWHADGSSTAAK
notes: native chromosomal ABC importer in whole cells; other candidate importers deleted
[3]
  Km: 20 µM
